Data published in the supplement of paper PMC10307832.

Key:
Experiment in all cases: relative viability (nuclei count vs DMSO), 5 days (fraction); higher = more cells survive
[1] = compound: Cn1cc(-c2cnn3c(N)c(Br)c([C@@H]4CCCNC4)nc23)cn1 + COc1cc2c(Oc3ccc(NC(=O)C4(C(=O)Nc5ccc(F)cc5)CC4)cc3F)ccnc2cc1OCCCN1CCOCC1 [Foretinib] (partner 0.25 µM)
How it was run: (§1)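 Lung cancer cell lines were pin-tool dosed in 1536-well plates on the day after seeding, with either a lone drug or a fixed anchor-drug dose plus five library-drug doses (not always all listed) in √10 steps. Nuclei were counted on 4× images after 5 days. Relative viability is the ratio of treated-well to vehicle-well nuclei counts, with each value a median of duplicate plates.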

[2] = compound: Cn1cc(-c2cnn3c(N)c(Br)c([C@@H]4CCCNC4)nc23)cn1 + NC(=O)Nc1cc(-c2cccc(F)c2)sc1C(=O)N[C@H]1CCCNC1 [AZD7762] (partner 0.2 µM)
How it was run: as §1

[3] = compound: Cn1cc(-c2cnn3c(N)c(Br)c([C@@H]4CCCNC4)nc23)cn1 + O=C(CCCCCCC(=O)Nc1ccccc1)NO [Vorinostat] (partner 1 µM)
How it was run: as §1

[4] = compound: Cn1cc(-c2cnn3c(N)c(Br)c([C@@H]4CCCNC4)nc23)cn1 + CS(=O)(=O)N1CCN(Cc2cc3nc(-c4cccc5[nH]ncc45)nc(N4CCOCC4)c3s2)CC1 [Pictilisib] (partner 1 µM)
How it was run: as §1

| Cell Line | relative viability ([1]; first compound 0.05 µM) | relative viability ([1]; first compound 0.1581 µM) | relative viability ([1]; first compound 0.5 µM) | relative viability ([1]; first compound 1.581 µM) | relative viability ([1]; first compound 5 µM) | relative viability ([2]; first compound 0.05 µM) | relative viability ([2]; first compound 0.1581 µM) | relative viability ([2]; first compound 0.5 µM) | relative viability ([2]; first compound 1.581 µM) | relative viability ([2]; first compound 5 µM) | relative viability ([3]; first compound 0.05 µM) | relative viability ([3]; first compound 0.1581 µM) | relative viability ([3]; first compound 0.5 µM) | relative viability ([3]; first compound 1.581 µM) | relative viability ([3]; first compound 5 µM) | relative viability ([4]; first compound 0.05 µM) | relative viability ([4]; first compound 0.1581 µM) | relative viability ([4]; first compound 0.5 µM) | relative viability ([4]; first compound 1.581 µM) | relative viability ([4]; first compound 5 µM) |
| --- | --- | --- | --- | --- | --- | --- | --- | --- | --- | --- | --- | --- | --- | --- | --- | --- | --- | --- | --- | --- |
| 201T | 0.999 | 0.952 | 1.26 | 0.554 | 0.265 | 0.597 | 0.618 | 0.661 | 0.506 | 0.498 | 0.938 | 1.05 | 0.996 | 0.897 | 0.549 | 0.644 | 0.621 | 0.704 | 0.613 | 0.573 |
| NCI-H838 | 1.1 | 1.2 | 1.01 | 1.11 | 0.965 | 0.991 | 0.92 | 1 | 0.879 | 0.84 | 0.788 | 0.779 | 0.742 | 0.65 | 0.527 | 0.365 | 0.501 | 0.416 | 0.264 | 0.488 |
| PC-14 | 0.974 | 1.04 | 0.933 | 0.903 | 0.53 | 0.348 | 0.273 | 0.332 | 0.277 | 0.182 | 0.752 | 0.601 | 0.527 | 0.223 | 0.117 | 0.73 | 0.685 | 0.558 | 0.504 | 0.248 |
| LK-2 | 1.18 | 1.27 | 0.887 | – | 0.901 | 0.303 | 0.408 | 0.33 | 0.315 | 0.209 | 0.276 | 0.351 | 0.236 | 0.249 | 0.162 | 0.597 | 0.508 | 0.574 | 0.444 | 0.306 |
| NCI-H1944 | 0.895 | 0.953 | 0.834 | 0.799 | 0.689 | 0.608 | 0.491 | 0.466 | 0.423 | 0.341 | 0.566 | 0.575 | 0.463 | 0.452 | 0.219 | 0.341 | 0.358 | 0.346 | 0.32 | 0.302 |
| HCC-78 | – | 0.666 | 0.561 | 0.535 | 0.576 | 0.515 | 0.647 | 0.648 | 0.563 | 0.386 | 0.431 | 0.609 | 0.478 | 0.41 | 0.416 | 0.245 | 0.246 | 0.11 | 0.155 | 0.154 |
| NCI-H2405 | 0.978 | 0.952 | 1.05 | 0.989 | 0.919 | 0.682 | 0.75 | 0.659 | 0.476 | 0.501 | 0.962 | 1.01 | 0.951 | 0.847 | 0.668 | 0.466 | 0.37 | 0.396 | 0.327 | 0.314 |
| EMC-BAC-2 | 1 | 1.11 | 1.02 | 0.977 | 0.926 | 1.05 | 1.26 | 1.08 | 1.04 | 0.821 | 0.275 | 0.351 | 0.35 | 0.46 | 0.23 | 0.545 | 0.561 | 0.531 | 0.475 | 0.509 |
| NCI-H596 | 0.871 | 0.797 | 0.778 | 0.83 | 0.674 | 1.13 | 1.06 | 1.06 | 1.01 | 1.1 | 0.517 | 0.602 | 0.624 | 0.356 | 0.455 | 0.386 | 0.401 | 0.427 | 0.362 | 0.413 |
| LCLC-97TM1 | 0.862 | 1 | 0.93 | 0.909 | 0.956 | 0.296 | 0.367 | 0.264 | 0.217 | 0.222 | 0.67 | 0.95 | 0.936 | 0.582 | 0.433 | 0.16 | 0.149 | 0.26 | 0.152 | 0.143 |
| H3255 | 0.843 | 0.998 | 0.998 | 0.971 | 0.83 | 0.978 | 0.896 | 1.05 | 0.746 | 0.527 | 0.738 | 0.872 | 0.914 | 0.746 | 0.411 | 0.489 | 0.488 | 0.427 | 0.425 | 0.327 |
| LXF-289 | 0.996 | 1.02 | 1 | 0.94 | 1.03 | 1.09 | 1.16 | 1.09 | 0.981 | 1.05 | 0.731 | 0.795 | 0.745 | 0.746 | 0.757 | 0.827 | 0.907 | 0.896 | 0.712 | 0.825 |
| LC-2-ad | 0.878 | 0.999 | 1.09 | 0.938 | 0.908 | 0.841 | 0.949 | 0.819 | 0.805 | 0.881 | 0.683 | 0.808 | 0.662 | 0.76 | 0.735 | 0.546 | 0.466 | 0.335 | 0.349 | 0.272 |
| A-427 | 1.05 | 1.11 | 1.01 | 1.09 | 0.712 | 0.72 | 0.569 | 0.566 | 0.502 | 0.344 | 0.817 | 0.915 | 0.843 | 0.816 | 0.406 | 0.675 | 0.661 | 0.819 | 0.643 | 0.509 |
| NCI-H322M | 0.91 | 0.62 | 0.854 | 0.563 | 0.297 | 0.51 | 0.428 | 0.501 | 0.447 | 0.407 | 0.871 | 0.831 | 0.754 | 0.626 | 0.394 | 0.542 | 0.5 | 0.421 | 0.475 | 0.377 |
| HCC-366 | 0.967 | 0.887 | 0.93 | 0.855 | 0.865 | 0.202 | 0.247 | 0.344 | 0.229 | 0.224 | 0.333 | 0.402 | 0.337 | 0.301 | 0.211 | 0.278 | 0.17 | 0.156 | 0.205 | 0.263 |
